Data taken from patent US12570684B2 (UNIVERSITY OF TENNESSEE RESEARCH FOUNDATION, priority 2020, dated 2026).
Like-named read-outs stand apart in the source and are kept apart here.

How the values were obtained:
[1] = test system: cell lines in Table 2; experiment: MTT assays, summary over the cell lines in Table 2; format: cell-based
Protocol: (§1) Cell lines. The human primary PDAC cell lines PANC-1 (ATCC CRL 1469); Capan-2 (ATCC HTB-80) and metastatic PDAC cell lines Capan-1 (ATCC HTB-79), AsPC-1 (ATCC CRL-1682), L1210 (ATCC CCL-219), KB (ATCC CCL-17), HeLa, SiHa (ATCC HTB-35), HCT-116 (ATCC CCL-247), DLD-1 (ATCC CCL221), hTERT-HPNE (ATCC CRL-4023), Vero (ATCC CCL-81) were purchased from the ATCC. The cell lines were cultured and maintained in the media as recommended by the supplier. The cell lines were regularly tested for mycoplasma contamination and authenticated. In addition to ATCC cell lines, Dr. Glazer's lab generated patient-derived PDAC cell line, PD002. PD002 Cells were maintained and cultured in DMEM medium supplemented with 20% FBS and 100 IU/mL penicillin and incubated at 37° C. with 5% CO2.
(§2) MTT cytotoxicity assay. To study the effect of treatment with DPAGT1 inhibitors on the growth and proliferation of cells, a fixed number of cells (5×10^4 cells/well, 196 μL) were plated in a 96 well plate. Into each well 5 μL of drug concentration was added. After 72 h of incubation with drugs at 37° C., 5% CO2, 10 μL of MTT solution (5 mg/mL in PBS) was added and incubated another 3 h at 37° C., 5% CO2. The medium was removed, and DMSO (200 μL/well) was added. Viability was assessed on the basis of cellular conversion of MTT into a purple formazan product. The absorbance of the colored formazan product was measured at 570 nm by BioTek Synergy HT Spectrophotometer.

[2] = test system: DPAGT1; experiment: Immunofluorescent staining of DPAGT1 expression; format: cell-based
[3] = test system: PD002; experiment: Cell migration assay using Transwell (Boyden) chamber; format: cell-based; conditions: 0.1 μM, 18 h; compared to tunicamycin and gemcitabine at 0.1 μM
Protocol: Cell migration assays using Transwell chamber. Cell migration assay was performed using Boyden chamber (thermo fisher). PD002 cells (˜10^4 cells/mL) were seeded in 96-wells plate (Corning, HTS Transwell-96 Well Permeable Supports, pore size: 8 μm) in FBS free media and the lower chambers were filled with 10% FBS medium. CPPB, tunicamycin, or gemcitabine (0.1 μM) was added to the upper chamber. The cells were incubated for 18 h at 37° C. under 5% CO2. The cells were fixed using 4% paraformaldehyde for 0.5 h and stained with 0.05% crystal violet (300 μL/well), after 0.5 h, images were captured via 10× magnification microscopy.

[4] = test system: Snail; experiment: Western blot of Snail in cervical cancer; format: cell-based; conditions: effective at 0.2 μM
[5] = test system: PD002; experiment: Checkerboard synergy (FIC index) with paclitaxel; format: cell-based
Protocol: The synergistic or antagonistic activities of CPPB were assessed in vitro via checkerboard technique.

[6] = molecular target: MraY (Hydrogenivirga sp.) (Hydrogenivirga sp. 128-5-R1-1, UniProt Z9Y2G8N0L0); experiment: MraY assay; format: biochemical
Sequence of MraY (Hydrogenivirga sp.) (Z9Y2G8N0L0 7-365 limits assumed): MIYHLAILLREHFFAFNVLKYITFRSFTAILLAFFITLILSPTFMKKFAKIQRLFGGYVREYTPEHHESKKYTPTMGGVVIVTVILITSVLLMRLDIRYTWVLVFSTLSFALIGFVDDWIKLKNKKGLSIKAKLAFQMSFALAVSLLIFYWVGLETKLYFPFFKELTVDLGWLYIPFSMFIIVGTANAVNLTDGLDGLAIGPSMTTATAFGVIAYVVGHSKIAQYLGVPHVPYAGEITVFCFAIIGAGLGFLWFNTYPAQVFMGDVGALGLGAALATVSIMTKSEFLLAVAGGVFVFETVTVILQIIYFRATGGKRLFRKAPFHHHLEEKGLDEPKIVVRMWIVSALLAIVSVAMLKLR
Protocol: Expression and purification of HyMraY. The gene mraY of Hydrogenivirga spp. 128-5-R1-1 was cloned with a N-terminal His6 tag into a pET22b vector. […] The proteins were purified using a nickel, cation exchange, and size exclusion chromatography.
MraY assay. MraY assay substrates, Park's nucleotide-N^ε-C6-dansylthiourea, neryl phosphate, were chemically synthesized according to the reported procedures.^7 Park's nucleotide-N^ε-C6-dansylthiourea (2 mM stock solution, 1.88 jiL), MgCl2 (0.5 M, 5 jiL), KCl (2 M, 5 jiL), Triton X-100 (0.5%, 5.63 jiL), Tris buffer (pH 8.0, 50 mM), neryl phosphate (0.1 M, 2.25 jiL), and inhibitor molecule (0-50 .ig/mL in Tris buffer) were placed in a 1.5 mL Eppendorf tube. […] (26° C.) and quenched with CHCl3 (100 jiL). […] The aqueous phase was assayed via reverse-phase HPLC.

[7] = test system: Capan-2; experiment: MTT cytotoxicity assay; format: cell-based, human; conditions: 72 h
Protocol: as §1, §2

[8] = test system: PANC-1; experiment: MTT cytotoxicity assay; format: cell-based, human; conditions: 72 h
Protocol: as §1, §2

[9] = test system: AsPC-1; experiment: MTT cytotoxicity assay; format: cell-based, human; conditions: 72 h
Protocol: as §1, §2

[10] = molecular target: T1, DPAGT1 (Human) (Homo sapiens, UniProt Q9H3H5); experiment: DPAGT1 assay; format: biochemical
T1 construct: made in house; host or cells: Expi293 cells (suspension)
T1 sequence (Q9H3H5 1-408): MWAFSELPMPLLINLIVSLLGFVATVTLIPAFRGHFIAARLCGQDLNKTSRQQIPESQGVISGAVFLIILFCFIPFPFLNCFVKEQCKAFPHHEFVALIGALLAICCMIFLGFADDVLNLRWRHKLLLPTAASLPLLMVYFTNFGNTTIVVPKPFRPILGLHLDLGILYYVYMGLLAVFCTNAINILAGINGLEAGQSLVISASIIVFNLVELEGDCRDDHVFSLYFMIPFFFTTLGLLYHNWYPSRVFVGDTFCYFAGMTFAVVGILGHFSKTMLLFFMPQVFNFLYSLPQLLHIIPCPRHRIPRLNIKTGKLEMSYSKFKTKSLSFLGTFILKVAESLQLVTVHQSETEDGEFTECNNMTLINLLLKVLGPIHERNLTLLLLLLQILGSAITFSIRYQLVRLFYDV
Protocol: DPAGT1 expression and purification. DPAGT1 was expressed in suspended Expi293 cells for 36 h. The cells were lysed by drawing through a 26 g needle (10 times) and membrane protein was extracted using buffer containing 1% decyl f3-D-maltopyranoside detergent. DPAGT1 was purified using HA-agarose resin and a superdex 200 size exclusion column.

## (2S,3S,4S)-2-((1R)-2-Amino-1-((2S,5R)-5-(2,4-dioxo-3,4-dihydropyrimidin-1(2H)-yl)-4-hydroxy-3-methoxytetrahydrofuran-2-yl)-2-oxoethoxy)-3,4-dihydroxy-N-(4-(4-(4-(trifluoromethoxy)-phenyl)piperidin-1-yl)benzyl)-3,4-dihydro-2H-pyran-6-carboxamide [CPPB]
[1]; 20 μM concentration
  viability of all pancreatic cancers tested (MTT): remained viable
[1]; at 10 μM or higher concentrations
  cytotoxicity against a series of cancer and healthy cell lines: not cytotoxic
[2]
  DPAGT1 protein expression: decreased
[2]; 0.2 μM
  DPAGT1 expression in pancreatic cancer cell lines: apparently inhibited
  order of decrease of DPAGT1 expression: PANC-1>PD002>>HCT-116
[2]; 20 μM
  DPAGT1 expression levels of HCT-116: remained high
[2]; 2-20 μM
  DPAGT1 expression of the pancreatic cancer cell lines at high concentration: could not completely be inhibited
[3]
  cell migration of PD002 via transwell chamber: inhibited on a higher level
[4]
  Snail expression in SiHa: inhibited by treatment of CPPB in a concentration dependent manner
[5]; PD002
  synergistic effect with paclitaxel: strong synergistic effect
[5]; alone, read-out: IC50 of the single agent against PD002
  IC50: 35 µM
[5]; entry 1, CPPB 0.10 μM + paclitaxel 0.63 μM
  ΣFIC: 0.50
[5]; entry 1, with paclitaxel 0.63 μM, read-out: IC50 CA (CPPB in combination)
  IC50: 0.1 µM
[5]; entry 2, CPPB 0.10 μM + paclitaxel […]
  ΣFIC: 0.13
[5]; entry 2, with paclitaxel […], read-out: IC50 CA (CPPB in combination)
  IC50: 0.1 µM
[5]; entry 3, CPPB 0.20 μM + paclitaxel 0.0049 μM
  ΣFIC: 0.0096
[5]; entry 3, with paclitaxel 0.0049 μM, read-out: IC50 CA (CPPB in combination)
  IC50: 0.2 µM
[5]; entry 4, CPPB 0.20 μM + paclitaxel 0.020 μM
  ΣFIC: 0.021
[5]; entry 4, with paclitaxel 0.020 μM, read-out: IC50 CA (CPPB in combination)
  IC50: 0.2 µM
[5]; entry 5, CPPB 0.20 μM + paclitaxel 0.031 μM
  ΣFIC: 0.26
[5]; entry 5, with paclitaxel 0.031 μM, read-out: IC50 CA (CPPB in combination)
  IC50: 0.2 µM
[5]; entry 6, CPPB 2.0 μM + paclitaxel 0.020 μM
  ΣFIC: 0.021
[5]; entry 6, with paclitaxel 0.020 μM, read-out: IC50 CA (CPPB in combination)
  IC50: 2 µM
[5]; entry 7, CPPB 2.0 μM + paclitaxel 0.039 μM
  ΣFIC: 0.037
[5]; entry 7, with paclitaxel 0.039 μM, read-out: IC50 CA (CPPB in combination)
  IC50: 2 µM
[5]; entry 8, CPPB 2.0 μM + paclitaxel 0.31 μM
  ΣFIC: 0.26
[5]; entry 8, with paclitaxel 0.31 μM, read-out: IC50 CA (CPPB in combination)
  IC50: 2 µM
[6]
  IC50: 10.3 µM
[7]
  IC50: 30 µM
[8]
  IC50: 35 µM
[9]
  IC50: 25 µM
[10]
  DPAGT1 inhibitory activity (in words): high nM range DPAGT1 inhibitors
  IC50: 0.2 µM
[10]; CPPB vs. I-CPPB
  DPAGT1 inhibitory strength relative to I-CPPB: three times stronger
[10]; CPPB vs. tunicamycin
  DPAGT1 inhibitory activity relative to tunicamycin: ~7.5 times
